Entries after “also recorded” stand apart in the source; their conditions may differ. Read-outs that look alike come from different tables or passages of the source.
Assays:
[1] = target: T1, AF568-actin:C0-C2 (actin-cMyBP-C binding) (Homo sapiens, UniProt Q14896); assay: TR-F high-throughput screen of LOPAC library, AF568-actin with C0-C2; details: for Actin-MyBP-C Drug Δτ, Screen 1 / Actin-MyBP-C Drug Δτ, Screen 2 / Actin-MyBP-C Drug Δτ, Sub-optimal Screen 3 / Actin-MyBP-C Drug Δτ, Sub-optimal Screen 4 / average change in lifetime, SD above the median of all compounds not excluded: 10 μM compound, 1 μM AF568-actin, 2 μM C0-C2; for average change in lifetime, SD above the median of all compounds not excluded: average of screens; for Difference, Screen 1 / Difference, Screen 2 / Difference, Sub-optimal Screen 3 / Difference, Sub-optimal Screen 4: Δτ actin+C0-C2 after subtracting effect on actin alone
Method: (§1) The 1280 LOPAC compounds were received in 96-well plates (LOPAC^1280, Sigma-Aldrich) and were reformatted into 1536-well flat, black-bottom polypropylene plates (Greiner Bio-One). In total, 50 nl of compounds was dispensed using an automated Echo 550 acoustic liquid dispenser (Labcyte). LOPAC compounds were formatted into plates, with the first two and last two columns loaded with 50 nl of DMSO and used for compound-free controls. The final concentration of the compounds was 10 μM. These assay plates were then heat-sealed using a PlateLoc Thermal Microplate Sealer (Agilent Technologies) and stored at –20 °C. Before screening, compound plates were equilibrated to room temperature (25 °C). In total, 1 μM AF568-labeled actin without or with 2 μM C0-C2 in M-ABB was dispensed by a Multidrop Combi Reagent Dispenser (Thermo Fisher Scientific) into the 1536-well assay plates containing the compounds. Plates were incubated at room temperature for 20 min before recording the data with the FLTPR. Plates were rescanned after 120 min incubation.
(§2) Two full screens were done using different batches of AF568-labeled actin, C0-C2, and test compounds.
(§3) Following data acquisition, TR-F waveforms observed for each well were convolved with the IRF to determine the lifetime (τ) (Equation 1) by fitting to a single-exponential decay ([15], [35]).
(§4) A compound was considered a Hit if it was in the top 25 compounds in each of two independent screenings of the LOPAC. Top compounds were those that increased the lifetime of AF568-actin when C0-C2 was present (indicating inhibition of C0-C2 binding). Compounds that altered AF568-actin lifetime when C0-C2 was not present by >4 SD relative to that of the control samples (those exposed to 0.1% DMSO) were first removed from the analysis. […] Any change in lifetime induced by a compound on AF568-actin alone was then subtracted from the effect of the compound on AF568-actin when C0-C2 was present. The resulting C0-C2-dependent change for all compounds was ranked.

AF568-actin = target: T2, AF568-actin (Oryctolagus cuniculus, UniProt P68135); assay: TR-F high-throughput screen, AF568-actin alone (no C0-C2); format: binding, rabbit; details: 10 μM compound; 1 μM AF568-actin alone
T2 construct: Actin was prepared from rabbit skeletal muscle by extracting acetone powder; from tissue; host or cells: rabbit skeletal muscle (acetone powder)
Method: as §1, §2, §3, §4

[2] = target: T1, AF568-actin:C0-C2 (actin-cMyBP-C binding); assay: TR-F concentration-response assay, AF568-actin with C0-C2; details: 2 μM C0-C2; for EC50: 1 μM AF568-actin, mean ± SE; for TR-F n: n not defined in table
Method: (§5) Using the same conditions as in the primary screen, we determined the concentration dependence of each of the three Hit compounds on the AF568-actin lifetime effects. […] In a separate dose–response assay utilizing 3 μM C0-C2, we compared the effects of the compounds on nonphosphorylated and phosphorylated C0-C2. […] In the second dose-response assay, 3 μM instead of 2 μM C0-C2 was used in the second dose–response assay so that effects of compounds on phosphorylated C0-C2 could be readily detected, as phosphorylation of C0-C2 itself (in the absence of compounds) reduces binding to actin.
The Hit compounds were dissolved in DMSO to make a 10 mM stock solution, which was serially diluted in 96-well mother plates. Hits were screened at eight concentrations (0.5–100 μM). Compounds (1 μl) were transferred from the mother plates into 384-well plates using a Mosquito HV liquid handler (TTP Labtech Ltd). The same procedure of dispensing as for the pilot screening was applied in the TR-F concentration–response assays. Concentration dependence of the TR-F change was fitted using the Hill equation ([38]):(3) τ=τo+τmaxC^α/EC50α+C^α where τ and τ0 are TR-F in the presence and in the absence of the compound, τmax is the maximum effect, C is the compound concentration, EC50 is the compound concentration for which 50% of maximum effect is obtained, and α is the Hill coefficient of sigmoidicity.

[3] = target: C0-C2 portion of human cMyBP-C (Homo sapiens, UniProt Q14896); assay: Isothermal titration calorimetry (ITC) of compounds binding to C0-C2; details: for ITC ΔS / ITC ΔH / ITC ΔG: Table 1 average; for ITC ΔS: no unit in table (Fig. 4: J/mol•K); for ITC ΔH: no unit in table (Fig. 4: kJ/mol); for ITC ΔG: unit not given; for ITC n (stoichiometry, compound per C0-C2): average of two preparations
F-actin = target: T3, F-actin (Oryctolagus cuniculus, UniProt P68135); assay: ITC of compounds with actin alone; format: binding, rabbit; details: actin alone
T3 construct: Actin was prepared from rabbit skeletal muscle by extracting acetone powder; from tissue; host or cells: rabbit skeletal muscle (acetone powder)
Method: The titration of compounds binding to cMyBP-C was performed on an Affinity ITC (TA Instruments). Each compound in M-ABB buffer (2000–3000 μM) was titrated into C0-C2 in M-ABB buffer (100 μM, 350 μl). For the titration, a preliminary 2.5-μl injection (ignored in data analysis) was followed by 19–39 subsequent 2.5-μl injections with 4 min waits between each injection. The reference cell was filled with distilled water. To account for heat changes of dilution and mechanical mixing, binding data were corrected by subtraction of the final plateau injection values (when binding is complete) prior to curve fitting. Corrected binding data was processed using the NanoAnalyze analysis software (TA Instruments).
Figure S2. ITC of Suramin binding to actin alone. (A) Titration of 100 µM F-actin (in 350 µl) with 40 2.5
µl injections of 3,000 µM Suramin. (B) Fitted ITC binding curve for Suramin binding. Binding to actin was
for Suramin with actin alone (Kd ~200 µM).
(1 picture or pasted object on this page, not shown here)

[4] = target: T4, FMAL-actin:TMR-C0-C2^Cys225 (Homo sapiens, UniProt Q14896, C239L/C249S/C426T/C436V/C443S/H225C); assay: FMAL-actin-TMR-C0-C2 TR-FRET binding assay; details: 1 μM FMAL-actin, 2 μM TMR-C0-C2, both nonphosphorylated and phosphorylated C0-C2
T4 construct: N-terminal domains C0 through C2 (C0-C2), containing the proline/alanine-rich linker (P/A) and the M-domain (M); 6x His (N, cleaved yes); TEV protease cleavage site (N, cleaved yes); made in house; host or cells: E. coli BL21DE3 (C0-C2^Cys225); actin purified from rabbit skeletal muscle
Method: In total, 1 μM F-Actin labeled (to 10%) on Cys-374 with FMAL (donor fluor) was incubated with increasing concentrations (0–20 μM) of C0-C2^Cys225 unlabeled (for donor only (D) data acquisition) or labeled to 95% with TMR (acceptor fluor) (for donor–acceptor (DA) data). Lifetimes of FMAL-actin were determined for D and DA at each concentration of C0-C2^Cys225. TR-FRET efficiency (1 – (τDA/τD)) was determined for each C0-C2^Cys225 concentration. The binding curve was generated from data from two separate preparations of actin and C0-C2^Cys225. Testing of compound effects by TR-FRET was similarly done at 1 μM FMAL-actin with unlabeled C0-C2^Cys225 (D) and TMR-C0-C2^Cys225 (DA), both at 2 μM.

C0-C2 = target: T5, C0-C2 (Homo sapiens, UniProt Q14896); assay: Visible light scattering (C0-C2 aggregation); details: 2 or 10 μM C0-C2 mixed with compound for 20 min
T5 construct: N-terminal domains C0 through C2 (C0-C2), containing the proline/alanine-rich linker (P/A) and the M-domain (M); 6x His (N, cleaved yes); TEV protease cleavage site (N, cleaved yes); made in house; host or cells: E. coli BL21DE3
Method: All three drugs were tested for causing C0-C2 to aggregate by measuring absorbance in the visible range beyond the absorption of protein or the drugs themselves. Observed absorbance in these wavelengths is actually loss of transmitted light due to light scattering from aggregated C0-C2. 2 or 10 μM of C0-C2 was mixed with 20 μM of suramin, NF023, or ATA for 20 min and wavelengths 250–600 nm were scanned using a Beckman Coulter DU730 UV/Vis Spectrophotometer to determine optical density. The same was done with 2 or 10 μM of C0-C2 and 20 μM of suramin, NF023, or ATA alone.

[5] = target: AF568-actin:phosphorylated (by PKA) C0-C2 (Homo sapiens, UniProt Q14896); assay: TR-F concentration-response assay, AF568-actin with PKA-phosphorylated C0-C2; details: for TR-F+PKA n: 3 μM phosphorylated C0-C2, n not defined in table
Method: as §5
C0-C2 was treated with 7.5 ng PKA/μg C0-C2 at 30 °C for 30 min.
The Hit compounds were dissolved in DMSO to make a 10 mM stock solution, which was serially diluted in 96-well mother plates. Hits were screened at eight concentrations (0.5–100 μM). Compounds (1 μl) were transferred from the mother plates into 384-well plates using a Mosquito HV liquid handler (TTP Labtech Ltd). The same procedure of dispensing as for the pilot screening was applied in the TR-F concentration–response assays.

[6] = compound binding to C0-C2, mean ± SE, two protein preparations, read-out: ITC Kd
[7] = single titration shown in Fig. 4
[8] = single titration shown in Fig. 4, 100 μM C0-C2, read-out: ITC Kd (fitted curve of Figure 4)

T4 sequence (Q14896 1-451 H225C/C239L/C249S/C426T/C436V/C443S limits assumed): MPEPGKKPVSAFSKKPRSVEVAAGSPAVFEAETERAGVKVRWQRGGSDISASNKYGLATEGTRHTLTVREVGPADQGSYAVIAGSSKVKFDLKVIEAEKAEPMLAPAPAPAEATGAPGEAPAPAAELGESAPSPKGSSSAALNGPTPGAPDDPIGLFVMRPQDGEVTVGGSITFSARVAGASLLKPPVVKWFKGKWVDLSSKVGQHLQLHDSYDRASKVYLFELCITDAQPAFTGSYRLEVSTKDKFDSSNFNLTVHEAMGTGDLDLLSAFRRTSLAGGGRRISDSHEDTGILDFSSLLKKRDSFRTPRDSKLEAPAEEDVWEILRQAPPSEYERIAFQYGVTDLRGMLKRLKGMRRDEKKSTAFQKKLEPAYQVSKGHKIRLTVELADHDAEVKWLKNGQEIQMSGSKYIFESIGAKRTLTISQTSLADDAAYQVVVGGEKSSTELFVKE
Sequence of AF568-actin:phosphorylated (by PKA) C0-C2 (Q14896 1-451 limits assumed): as the sequence (Q14896 1-451 H225C/C239L/C249S/C426T/C436V/C443S limits assumed) above, with C225H, L239C, S249C, T426C, V436C, S443C counted along it
Sequence of C0-C2 portion of human cMyBP-C (Q14896 1-451 limits assumed): as the sequence (Q14896 1-451 H225C/C239L/C249S/C426T/C436V/C443S limits assumed) above, with C225H, L239C, S249C, T426C, V436C, S443C counted along it
T1 sequence (Q14896 1-451 limits assumed): as the sequence (Q14896 1-451 H225C/C239L/C249S/C426T/C436V/C443S limits assumed) above, with C225H, L239C, S249C, T426C, V436C, S443C counted along it
T5 sequence (Q14896 1-451 limits assumed): as the sequence (Q14896 1-451 H225C/C239L/C249S/C426T/C436V/C443S limits assumed) above, with C225H, L239C, S249C, T426C, V436C, S443C counted along it

Compound	Actin-MyBP-C Drug Δτ, Screen 1 [1] [ns]	Actin-MyBP-C Drug Δτ, Screen 2 [1] [ns]	Actin-MyBP-C Drug Δτ, Sub-optimal Screen 3 [1] [ns]	Actin-MyBP-C Drug Δτ, Sub-optimal Screen 4 [1] [ns]	average change in lifetime, SD above the median of all compounds not excluded [1] [SD]	Difference, Screen 1 [1] [ns]	Difference, Screen 2 [1] [ns]	Difference, Sub-optimal Screen 3 [1] [ns]	Difference, Sub-optimal Screen 4 [1] [ns]	Actin Drug Δτ, Screen 1 (AF568-actin) [ns]	Actin Drug Δτ, Screen 2 (AF568-actin) [ns]	Actin Drug Δτ, Sub-optimal Screen 3 (AF568-actin) [ns]	Actin Drug Δτ, Sub-optimal Screen 4 (AF568-actin) [ns]	EC50 [2] [µM]	TR-F n [2]	ITC ΔS [3]	ITC ΔH [3]	ITC ΔG [3]	ITC n (stoichiometry, compound per C0-C2) [3]	Kd [3, 6] [µM]	also measured
O=C(O)C1=CC(=C(c2ccc(O)c(C(=O)O)c2)c2ccc(O)c(C(=O)O)c2)C=CC1=O [ATA, aurintricarboxylic acid]	0.008	0.06	0.07	0.07	3.0	0.04	0.06	0.10	0.07	-0.04	0.00	-0.03	0.00	7.9 ± 1.9	3.4	52.9	−10.2	−25.8	3.1	25.9 ± 2.2	ITC n (fitted curve of Figure 4) [3, 7]: 2.1; ITC ΔH (fitted curve of Figure 4) [3, 7]: -10.4 kJ/mol; ITC ΔS (fitted curve of Figure 4) [3, 7]: 51.5 J/mol•K; Kd [3, 8]: 28.1 µM; ITC interaction with F-actin (in words) (F-actin): not apparent; also recorded: no interaction; TR-FRET measured binding of C0-C2 to actin, effect of compound ([4]; 20 μM compound): almost completely eliminated; also recorded: near zero; absorbance in the visible range (light scatter, C0-C2 aggregation) (C0-C2): detected absorption; EC50 [5]: 4.3 ± 0.9 µM; TR-F+PKA n [5]: 1.4
O=C(Nc1cccc(C(=O)Nc2ccc(S(=O)(=O)O)c3cc(S(=O)(=O)O)cc(S(=O)(=O)O)c23)c1)Nc1cccc(C(=O)Nc2ccc(S(=O)(=O)O)c3cc(S(=O)(=O)O)cc(S(=O)(=O)O)c23)c1 [NF023]	0.058	0.07	0.06	0.04	3.8	0.09	0.06	0.08	0.03	-0.03	0.01	-0.02	0.01	16.3 ± 1.2	3.2	−19.2	−30.2	−24.6	2.1	42 ± 3.4	ITC n (fitted curve of Figure 4) [3, 7]: 2.6; ITC ΔH (fitted curve of Figure 4) [3, 7]: -31.1 kJ/mol; ITC ΔS (fitted curve of Figure 4) [3, 7]: 20.9 J/mol•K; Kd [3, 8]: 35.1 µM; ITC interaction with F-actin (in words) (F-actin): not apparent; also recorded: no interaction; TR-FRET measured binding of C0-C2 to actin, effect of compound ([4]; 50 μM compound): almost completely eliminated; absorbance in the visible range (light scatter, C0-C2 aggregation) (C0-C2): did not detect absorption; TR-F+PKA n [5]: 1.8; EC50 ([5]; read-out: TR-F+PKA EC50, 1 μM AF568-actin, 3 μM PKA-phosphorylated C0-C2, mean ± SE): 17.5 ± 11.8 µM
